Experimental data as given in patent US7288573B2, “Method of repelling insects” (priority 2001, dated 2007).

What was measured:
Format in all cases: in vivo
cockroaches = assay: Cockroach repellency, paste floor wax with 2-undecanone; details: one percent by weight in paste floor wax
From the text: A commercially available paste floor wax is combined with one percent by weight of 2-undecanone and the two ingredients mixed thoroughly together. The paste floor wax is then applied to a region of flooring and buffed. The same paste floor wax, without 2-undecanone, is applied to an adjacent region of flooring in the same amount and also buffed.

Culex spp. = assay: Mosquito repellency of 2-undecanone versus DEET, treated cloth on forearm (Example 8); details: 5% and 20% in ethyl alcohol sprayed onto cloth; landings in 5 minutes
Experimental: 2-undecanone was dissolved in ethyl alcohol (v/v at 5% and 20%) and approximately 1 ml was sprayed onto cloth that was then wrapped around the investigator's forearm prior to insertion into a 59 cm×55 cm×59 cm mosquito cage containing approximately 100 Culex spp. adult mosquitoes. DEET was a formulated, commercial product (Cutter). The number of mosquito landings in 5 minutes was recorded as well as the overall behavior response of the mosquitoes. […] The most impressive evidence of this repellent effect was the observation that the mosquitoes immediately disperse away from the treated arm and actually stop flying, instead lining up on the wire screen of the cage.
The results are shown in FIG. 5 as a graph of repellency as a function of time for 0 hr, 3 hr and 6 hr post-application of the formulations (i) 21% DEET, (ii) 20% 2-undecanone (IBI-246) and (iii) 5% 2-undecanone (IBI-246), where repellency={[# mosquito landings in Control test/# mosquitoes present in Control)−(# mosquito landings in Experiment/# mosquitoes present in Experiment)] divided by (# mosquito landings in Control test/# mosquitoes present in Control)}×100.

Aedes albopictus = assay: One-minute biting counts on treated forearm (Example 7)
Experimental: This experiment was performed to evaluate the comparative repellency of 5% and 20% 2-undecanone in ethanol, 20% 2-tridecanone in isopropanol and Off!™ 14.25% DEET Insect Repellent aerosol against Aedes albopictus (Asian tiger mosquitoes) and Culex quinquefasciatus (southern house mosquitoes).
Three to four-day-old laboratory-reared female Ae. albopictus and Cx. quinquefasciatus were transferred by aspiration into eight cages measuring 10 inches high×10 inches wide×13 inches deep at a targeted stocking rate of 100 and 200, respectively. Four cages contained Ae. albopictus and four contained Cx. quinquefasciatus. A greater number of Cx. quinquefasciatus was used to compensate for lower biting activity anticipated for this species. The actual number of females per cage was lower than the target-stocking rate because of the high number of males that were inadvertently introduced into the cages. Each cage contained a screened back wall, clear Plexiglas top, stockinette entry sleeve and solid aluminum floor and sidewalls. The mosquitoes were fed water and sugar water prior to and between tests. The tests were conducted over four days, Aug. 7-10, 2001, with four men participating as testers. All testers washed both arms with a non-fragrance soap, rinsed and swabbed with 25% ethanol prior to applying treatments. Treatments were applied to the forearm in a region extending from the wrist to a point measured at 12″ back from the tip of the index finger on both arms. The 20% 2-tridecanone was not applied as uniformly as the other repellents because an insufficient quantity was available. Latex gloves were worn over the hands and replaced before each biting count. The control consisted of a soap wash, rinse and 25% ethanol swab and was conducted by the same person throughout the study. One-minute biting counts were recorded at 0, 1, 2, 4 & 6 hours post-treatment time intervals. All treatments were randomly assigned to each tester, two treatments per tester. Cage placement was also randomized at the beginning of each day of testing. Testers were rotated each day so that by the end of the study they had occupied each cage location. Each repellent was tested two times by three testers so that mean biting counts were based on six observations. A Hobo datalogger was used to monitor temperature and humidity throughout the study.
A balanced incomplete block design following American Society for Testing and Materials standards E 939-94 was employed. Data were normalized by square root transformation and submitted to analysis of variance and mean separation procedures via SS PC. Microsoft Excel 2000 pivot tables and charting functions were used to plot mean biting counts and standard errors by species and time interval for each treatment and control. Mean biting counts were transformed to percent protection or repellency by the following formula: Control−Treatment/Control×100.

Aedes taeniorhynchus = assay: Mosquito repellency of undecanone, treated gauze glove in cage
Experimental: Forty milliliters of a 2.5 percent solution of undecanone in absolute ethanol was added to a gauze glove (20×15 centimeters) in a 250 milliliter beaker. After soaking for 1 minute, the glove was laid onto aluminum foil in a fume hood for 13 minutes and then suspended by one end from the sash of the fume hood for 3 minutes. The ethanol appeared to be completely evaporated after this treatment as determined by touch. […] The same treatment was used without undecanone as a control. After the same drying steps, no odor of ethanol could be detected by smell. The control glove was the same physical dimensions and made from the same batch of material as the treatment. […]
Approximately 100 adult male and female mosquitoes (Aedes taeniorhynchus) (exact sex ratio not determined) were placed in a 12×12×14.5 inch stainless steel screened cage. […]
The following data are the control responses when the tester's hand covered by the ethanol treated (dried) glove was placed into the mosquito cage (at room temperature) for 20 seconds at the times indicated: 0 minutes, 10 landings and 1 bite; 10 minutes, 9-12 landings and 1 bite; 20 minutes, approximately 13 landings and no bites; and 40 minutes, approximately 13 landings and no bites. […] However, only sustained landings of about 5 seconds were recorded as a positive response along with actual bites. […]

[1] = Observation on the investigator's skin after application (Example 6); details: applied at full strength (100%) to hand/arm
[2] = 20% formulations, post-treatment time intervals

| Structure (SMILES) | time cockroaches spend in treated region versus control region of flooring (cockroaches) | concentrations with the strongest repellent effect (Culex spp.) | mean biting count, mean separation test versus the 20% formulations (Aedes albopictus; 5% formulation) | repellency (Aedes albopictus; 5% formulation, initial value) [%] | repellency (Aedes albopictus; 5% formulation, value to which repellency diminished) | repellency (Aedes albopictus; [2]) | performance during the first biting count (Aedes albopictus; Off! 14.25% DEET, 5% 2-undecanone) | landings and bites (Aedes taeniorhynchus; glove soaked in 2.5 percent solution in ethanol, dried, hand in cage 20 seconds at 0 minutes to 4 hours and 40 minutes) | host seeking behavior (Aedes taeniorhynchus; glove soaked in 2.5 percent solution, first 3 to 4 hours) | skin irritation on application [1] |
| --- | --- | --- | --- | --- | --- | --- | --- | --- | --- | --- |
| CCCCCCCCCC(C)=O [2-undecanone] | spend less time in the region containing 2-undecanone | strongest effect at the 20% and 5% concentrations | significantly (p=0.05) lower mean biting count than the other two formulations | 100 | upper 60 percentile | low repellency | worked well | No landings and no bites | no host seeking behavior |  |
| CCCCCCCCCCCC(C)=O [2-tridecanone] |  |  |  |  |  | low repellency |  |  |  | mildly irritating |
